Laboratory results reported in patent publication US20020111274A1, “1-alkyl-3-[1-(substituted phenyl) benzotriazol-6-yl] uracils” (BASF Aktiengesellschaft, priority 2000, published 2002).

Assays:
Parameters in all cases: scale not given here
[1] = system: ABUTH Velvetleaf; assay: Postemergence herbicidal evaluation, ABUTH; type: in vivo, Abutilon theophrasti, Medic.; conditions: postemergence spray, rated about two-three weeks after treatment
How it was run: (§1)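 Seedlings grown about two weeks were sprayed with compound in 80/20 acetone/water containing 1.0% methylated seed oil, at the equivalent of about 0.006 to 0.400 kg/ha, through a nozzle at 40 psi. Plants were kept in the greenhouse and rated visually about two to three weeks after treatment.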

[2] = system: AMBEL Ragweed, Common; assay: Postemergence herbicidal evaluation, AMBEL; type: in vivo, Ambrosia artemisifolia, L.; conditions: postemergence spray, rated about two-three weeks after treatment
How it was run: as §1

[3] = system: CASOB Sicklepod; assay: Postemergence herbicidal evaluation, CASOB; type: in vivo, Cassia obtusifolia, L.; conditions: postemergence spray, rated about two-three weeks after treatment
How it was run: as §1

[4] = system: CHEAL Lambsquarters, Common; assay: Postemergence herbicidal evaluation, CHEAL; type: in vivo, Chenopodium album, L.; conditions: postemergence spray, rated about two-three weeks after treatment
How it was run: as §1

[5] = system: ECHOG Barnyardgrass; assay: Postemergence herbicidal evaluation, ECHOG; type: in vivo, Echinochloa crus-galli, (L.) Beau; conditions: postemergence spray, rated about two-three weeks after treatment
How it was run: as §1

[6] = system: GALAP Galium; assay: Postemergence herbicidal evaluation, GALAP; type: in vivo, Galium aparine; conditions: postemergence spray, rated about two-three weeks after treatment
How it was run: as §1

[7] = system: IPOHE Morningglory, Ivyleaf; assay: Postemergence herbicidal evaluation, IPOHE; type: in vivo, Ipomoea hederacea, (L.) Jacq.; conditions: postemergence spray, rated about two-three weeks after treatment
How it was run: as §1

[8] = system: SETVI Foxtail, Green; assay: Postemergence herbicidal evaluation, SETVI; type: in vivo, Setaria viridis, (L.) Beau; conditions: postemergence spray, rated about two-three weeks after treatment
How it was run: as §1

[9] = system: GLXMAW Soybean, Williams; assay: Postemergence herbicidal evaluation, GLXMAW; type: in vivo, Glycine max, (L.) Merr. cv Williams; conditions: postemergence spray, rated about two-three weeks after treatment
How it was run: as §1

[10] = system: TRZAWR Wheat, Winter, cv Riband; assay: Postemergence herbicidal evaluation, TRZAWR; type: in vivo, Triticum aestivum; conditions: postemergence spray, rated about two-three weeks after treatment
How it was run: as §1

[11] = system: ORYSAT Rice, Tebonnet; assay: Postemergence herbicidal evaluation, ORYSAT; type: in vivo, Oryza sativa, (L.); conditions: postemergence spray, rated about two-three weeks after treatment
How it was run: as §1

[12] = system: ZEAMX Corn, Field; assay: Postemergence herbicidal evaluation, ZEAMX; type: in vivo, Zea mays, L. (Sammel-Bezeichnung); conditions: postemergence spray, rated about two-three weeks after treatment
How it was run: as §1

[13] = system: ABUTH Velvetleaf; assay: Preemergence herbicidal evaluation, ABUTH; type: in vivo, Abutilon theophrasti, Medic.; conditions: preemergence
How it was run: (§2)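 Compound applied preemergence as an aqueous acetone spray onto freshly planted cups, dose equivalent approx. 0.013 to 0.800 kg/ha. Evaluation by rating at weeks 4–5.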

[14] = system: AMBEL Ragweed, Common; assay: Preemergence herbicidal evaluation, AMBEL; type: in vivo, Ambrosia artemisifolia, L.; conditions: preemergence
How it was run: as §2

[15] = system: CASOB Sicklepod; assay: Preemergence herbicidal evaluation, CASOB; type: in vivo, Cassia obtusifolia, L.; conditions: preemergence
How it was run: as §2

[16] = system: CHEAL Lambsquarters, Common; assay: Preemergence herbicidal evaluation, CHEAL; type: in vivo, Chenopodium album, L.; conditions: preemergence
How it was run: as §2

[17] = system: ECHOG Barnyardgrass; assay: Preemergence herbicidal evaluation, ECHOG; type: in vivo, Echinochloa crus-galli, (L.) Beau; conditions: preemergence
How it was run: as §2

[18] = system: GALAP Galium; assay: Preemergence herbicidal evaluation, GALAP; type: in vivo, Galium aparine; conditions: preemergence
How it was run: as §2

[19] = system: IPOHE Morningglory, Ivyleaf; assay: Preemergence herbicidal evaluation, IPOHE; type: in vivo, Ipomoea hederacea, (L.) Jacq.; conditions: preemergence
How it was run: as §2

[20] = system: SETVI Foxtail, Green; assay: Preemergence herbicidal evaluation, SETVI; type: in vivo, Setaria viridis, (L.) Beau; conditions: preemergence
How it was run: as §2

[21] = system: GLXMAW Soybean, Williams; assay: Preemergence herbicidal evaluation, GLXMAW; type: in vivo, Glycine max, (L.) Merr. cv Williams; conditions: preemergence
How it was run: as §2

[22] = system: TRZAWR Wheat, Winter, cv Riband; assay: Preemergence herbicidal evaluation, TRZAWR; type: in vivo, Triticum aestivum; conditions: preemergence
How it was run: as §2

[23] = system: ORYSAT Rice, Tebonnet; assay: Preemergence herbicidal evaluation, ORYSAT; type: in vivo, Oryza sativa, (L.); conditions: preemergence
How it was run: as §2

[24] = system: ZEAMX Corn, Field; assay: Preemergence herbicidal evaluation, ZEAMX; type: in vivo, Zea mays, L. (Sammel-Bezeichnung); conditions: preemergence
How it was run: as §2

`C#CCOC(=O)COc1ccc(C)c(-n2nnc3cc(F)c(-n4c(=O)cc(C(F)(F)F)n(C)c4=O)cc32)c1` [Example 36] was tested, and the “Postemergence herbicidal rating ABUTH” value ([1]; 0.008 kg/ha) was 2.0, the “Postemergence herbicidal rating ABUTH” value ([1]; 0.016 kg/ha) was 7.0 and the “Postemergence herbicidal rating ABUTH” value ([1]; 0.032 kg/ha) was 9.0. The “Postemergence herbicidal rating ABUTH” value ([1]; 0.062 kg/ha) was 9.0, the “Postemergence herbicidal rating AMBEL” value ([2]; 0.008 kg/ha) was 2.0 and the “Postemergence herbicidal rating AMBEL” value ([2]; 0.016 kg/ha) was 4.0. The “Postemergence herbicidal rating AMBEL” value ([2]; 0.032 kg/ha) was 5.0, the “Postemergence herbicidal rating AMBEL” value ([2]; 0.062 kg/ha) was 5.0 and the “Postemergence herbicidal rating CASOB” value ([3]; 0.008 kg/ha) was 0.0. For the same molecule, the “Postemergence herbicidal rating CASOB” value ([3]; 0.016 kg/ha) was 0.0, the “Postemergence herbicidal rating CASOB” value ([3]; 0.032 kg/ha) was 0.0 and the “Postemergence herbicidal rating CASOB” value ([3]; 0.062 kg/ha) was 0.0. The “Postemergence herbicidal rating CHEAL” value ([4]; 0.008 kg/ha) was 0.0, the “Postemergence herbicidal rating CHEAL” value ([4]; 0.016 kg/ha) was 0.0 and the “Postemergence herbicidal rating CHEAL” value ([4]; 0.032 kg/ha) was 2.0. The “Postemergence herbicidal rating CHEAL” value ([4]; 0.062 kg/ha) was 4.0, the “Postemergence herbicidal rating ECHCG” value ([5]; 0.008 kg/ha) was 0.0 and the “Postemergence herbicidal rating ECHCG” value ([5]; 0.016 kg/ha) was 0.0. The “Postemergence herbicidal rating ECHCG” value ([5]; 0.032 kg/ha) was 0.0, the “Postemergence herbicidal rating ECHCG” value ([5]; 0.062 kg/ha) was 3.0 and the “Postemergence herbicidal rating GALAP” value ([6]; 0.008 kg/ha) was 0.0. The “Postemergence herbicidal rating GALAP” value ([6]; 0.016 kg/ha) was 0.0, the “Postemergence herbicidal rating GALAP” value ([6]; 0.032 kg/ha) was 2.0 and the “Postemergence herbicidal rating GALAP” value ([6]; 0.062 kg/ha) was 3.0. For the same molecule, the “Postemergence herbicidal rating IPOHE” value ([7]; 0.008 kg/ha) was 5.0, the “Postemergence herbicidal rating IPOHE” value ([7]; 0.016 kg/ha) was 8.0 and the “Postemergence herbicidal rating IPOHE” value ([7]; 0.032 kg/ha) was 9.0. The “Postemergence herbicidal rating IPOHE” value ([7]; 0.062 kg/ha) was 9.0, the “Postemergence herbicidal rating SETVI” value ([8]; 0.008 kg/ha) was 4.0 and the “Postemergence herbicidal rating SETVI” value ([8]; 0.016 kg/ha) was 4.0. The “Postemergence herbicidal rating SETVI” value ([8]; 0.032 kg/ha) was 7.0, the “Postemergence herbicidal rating SETVI” value ([8]; 0.062 kg/ha) was 9.0 and the “Postemergence herbicidal rating GLXMAW” value ([9]; 0.008 kg/ha) was 3.5. The “Postemergence herbicidal rating GLXMAW” value ([9]; 0.016 kg/ha) was 4.0, the “Postemergence herbicidal rating GLXMAW” value ([9]; 0.032 kg/ha) was 4.0 and the “Postemergence herbicidal rating GLXMAW” value ([9]; 0.062 kg/ha) was 4.5. The “Postemergence herbicidal rating TRZAWR” value ([10]; 0.008 kg/ha) was 4.5, the “Postemergence herbicidal rating TRZAWR” value ([10]; 0.016 kg/ha) was 5.0 and the “Postemergence herbicidal rating TRZAWR” value ([10]; 0.032 kg/ha) was 6.0. For the same molecule, the “Postemergence herbicidal rating TRZAWR” value ([10]; 0.062 kg/ha) was 7.0, the “Postemergence herbicidal rating ORYSAT” value ([11]; 0.008 kg/ha) was 1.5 and the “Postemergence herbicidal rating ORYSAT” value ([11]; 0.016 kg/ha) was 1.0. For the same molecule, the “Postemergence herbicidal rating ORYSAT” value ([11]; 0.032 kg/ha) was 2.5, the “Postemergence herbicidal rating ORYSAT” value ([11]; 0.062 kg/ha) was 4.0 and the “Postemergence herbicidal rating ZEAMX” value ([12]; 0.008 kg/ha) was 7.5. For the same molecule, the “Postemergence herbicidal rating ZEAMX” value ([12]; 0.016 kg/ha) was 7.5, the “Postemergence herbicidal rating ZEAMX” value ([12]; 0.032 kg/ha) was 8.0 and the “Postemergence herbicidal rating ZEAMX” value ([12]; 0.062 kg/ha) was 8.5. It also gave an ABUTH herbicidal rating ([13]; rate 0.016 kg/ha) of 0.0, an ABUTH herbicidal rating ([13]; rate 0.032 kg/ha) of 1.5 and an ABUTH herbicidal rating ([13]; rate 0.062 kg/ha) of 3.0. The ABUTH herbicidal rating ([13]; rate 0.125 kg/ha) was 8.0, the AMBEL herbicidal rating ([14]; rate 0.016 kg/ha) was 0.0 and the AMBEL herbicidal rating ([14]; rate 0.032 kg/ha) was 2.0. It also gave an AMBEL herbicidal rating ([14]; rate 0.062 kg/ha) of 2.0, an AMBEL herbicidal rating ([14]; rate 0.125 kg/ha) of 5.0 and a CASOB herbicidal rating ([15]; rate 0.016 kg/ha) of 0.0. The CASOB herbicidal rating ([15]; rate 0.032 kg/ha) was 0.0, the CASOB herbicidal rating ([15]; rate 0.062 kg/ha) was 0.0 and the CASOB herbicidal rating ([15]; rate 0.125 kg/ha) was 0.0. For the same molecule, the CHEAL herbicidal rating ([16]; rate 0.016 kg/ha) was 0.0, the CHEAL herbicidal rating ([16]; rate 0.032 kg/ha) was 6.5 and the CHEAL herbicidal rating ([16]; rate 0.062 kg/ha) was 9.0. The CHEAL herbicidal rating ([16]; rate 0.125 kg/ha) was 9.0, the ECHCG herbicidal rating ([17]; rate 0.016 kg/ha) was 0.0 and the ECHCG herbicidal rating ([17]; rate 0.032 kg/ha) was 0.0. It also gave an ECHCG herbicidal rating ([17]; rate 0.062 kg/ha) of 0.0, an ECHCG herbicidal rating ([17]; rate 0.125 kg/ha) of 0.0 and a GALAP herbicidal rating ([18]; rate 0.016 kg/ha) of 0.0. The GALAP herbicidal rating ([18]; rate 0.032 kg/ha) was 0.0, the GALAP herbicidal rating ([18]; rate 0.062 kg/ha) was 0.0 and the GALAP herbicidal rating ([18]; rate 0.125 kg/ha) was 0.0. It also gave an IPOHE herbicidal rating ([19]; rate 0.016 kg/ha) of 0.0, an IPOHE herbicidal rating ([19]; rate 0.032 kg/ha) of 0.0 and an IPOHE herbicidal rating ([19]; rate 0.062 kg/ha) of 0.0. The IPOHE herbicidal rating ([19]; rate 0.125 kg/ha) was 4.0, the SETVI herbicidal rating ([20]; rate 0.016 kg/ha) was 0.0 and the SETVI herbicidal rating ([20]; rate 0.032 kg/ha) was 0.0. It also gave an SETVI herbicidal rating ([20]; rate 0.062 kg/ha) of 0.0, an SETVI herbicidal rating ([20]; rate 0.125 kg/ha) of 3.0 and a GLXMAW herbicidal rating ([21]; rate 0.016 kg/ha) of 0.0. It also gave a GLXMAW herbicidal rating ([21]; rate 0.032 kg/ha) of 0.0, a GLXMAW herbicidal rating ([21]; rate 0.062 kg/ha) of 0.0 and a GLXMAW herbicidal rating ([21]; rate 0.125 kg/ha) of 0.0. It also gave a TRZAWR herbicidal rating ([22]; rate 0.016 kg/ha) of 0.0, a TRZAWR herbicidal rating ([22]; rate 0.032 kg/ha) of 0.0 and a TRZAWR herbicidal rating ([22]; rate 0.062 kg/ha) of 0.0. For the same molecule, the TRZAWR herbicidal rating ([22]; rate 0.125 kg/ha) was 0.0, the ORYSAT herbicidal rating ([23]; rate 0.016 kg/ha) was 0.0 and the ORYSAT herbicidal rating ([23]; rate 0.032 kg/ha) was 0.0. It also gave an ORYSAT herbicidal rating ([23]; rate 0.062 kg/ha) of 1.0, an ORYSAT herbicidal rating ([23]; rate 0.125 kg/ha) of 1.5 and a ZEAMX herbicidal rating ([24]; rate 0.016 kg/ha) of 0.0. The ZEAMX herbicidal rating ([24]; rate 0.032 kg/ha) was 0.0, the ZEAMX herbicidal rating ([24]; rate 0.062 kg/ha) was 0.0 and the ZEAMX herbicidal rating ([24]; rate 0.125 kg/ha) was 0.0.
